The target in assay [1] is T1, LPA4 (Homo sapiens, UniProt Q99677).
For a further assay, the target named is LPA2 (Homo sapiens, UniProt Q9HBW0). The assay can be described thus: TGFα shedding assay, LPA2. The format is cell-based. The settings on record: for EC50: EC50, HEK293 cells, human LPA2 + AP-TGFα + Gαq/s, 1 h 37°C; for <RIA>: relative to 18:1-LPA (1) = 1 of the same table.
Assay [2] concerns the target T1, LPA4. The experiment in a line: cell-based.
The next assay addresses LPA5 (Homo sapiens, UniProt Q9H1C0).
The target of another assay is LPA1 (Homo sapiens, UniProt Q92633).

The text below walks through data of article PMC10753746 (ACS Omega, 2023).

Some results are limits rather than exact numbers.

Chain of LPA2 (Q9HBW0 whole entry): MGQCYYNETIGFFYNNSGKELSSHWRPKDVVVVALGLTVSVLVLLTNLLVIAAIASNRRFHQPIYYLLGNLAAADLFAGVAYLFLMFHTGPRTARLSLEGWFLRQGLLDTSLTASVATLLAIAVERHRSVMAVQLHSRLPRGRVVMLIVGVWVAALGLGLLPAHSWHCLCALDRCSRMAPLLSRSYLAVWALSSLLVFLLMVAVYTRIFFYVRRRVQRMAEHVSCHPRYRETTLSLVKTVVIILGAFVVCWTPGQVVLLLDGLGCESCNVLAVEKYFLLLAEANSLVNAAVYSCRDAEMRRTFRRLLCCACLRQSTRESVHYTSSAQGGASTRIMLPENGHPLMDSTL
T1 sequence (Q99677 whole entry): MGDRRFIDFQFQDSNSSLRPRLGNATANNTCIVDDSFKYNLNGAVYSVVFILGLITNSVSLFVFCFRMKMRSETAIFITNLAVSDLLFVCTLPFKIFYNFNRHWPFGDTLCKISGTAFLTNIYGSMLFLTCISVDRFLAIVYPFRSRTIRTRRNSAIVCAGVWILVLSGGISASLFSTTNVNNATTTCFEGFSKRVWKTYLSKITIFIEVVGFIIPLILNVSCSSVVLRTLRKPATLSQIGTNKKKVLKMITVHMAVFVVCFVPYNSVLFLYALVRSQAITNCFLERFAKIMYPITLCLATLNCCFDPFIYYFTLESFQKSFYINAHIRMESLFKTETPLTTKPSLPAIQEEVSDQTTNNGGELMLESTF
Chain of LPA5 (Q9H1C0 whole entry): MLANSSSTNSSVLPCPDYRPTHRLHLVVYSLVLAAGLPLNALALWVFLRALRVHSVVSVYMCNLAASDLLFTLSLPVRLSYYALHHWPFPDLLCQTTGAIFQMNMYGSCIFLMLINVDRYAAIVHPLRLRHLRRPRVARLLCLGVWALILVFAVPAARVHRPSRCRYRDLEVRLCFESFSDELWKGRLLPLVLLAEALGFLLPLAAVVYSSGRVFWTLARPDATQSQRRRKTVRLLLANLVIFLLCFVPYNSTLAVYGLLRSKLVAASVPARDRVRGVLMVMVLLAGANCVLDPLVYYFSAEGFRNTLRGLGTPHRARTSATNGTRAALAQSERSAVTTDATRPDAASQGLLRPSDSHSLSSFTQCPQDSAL
Chain of LPA1 (Q92633 whole entry): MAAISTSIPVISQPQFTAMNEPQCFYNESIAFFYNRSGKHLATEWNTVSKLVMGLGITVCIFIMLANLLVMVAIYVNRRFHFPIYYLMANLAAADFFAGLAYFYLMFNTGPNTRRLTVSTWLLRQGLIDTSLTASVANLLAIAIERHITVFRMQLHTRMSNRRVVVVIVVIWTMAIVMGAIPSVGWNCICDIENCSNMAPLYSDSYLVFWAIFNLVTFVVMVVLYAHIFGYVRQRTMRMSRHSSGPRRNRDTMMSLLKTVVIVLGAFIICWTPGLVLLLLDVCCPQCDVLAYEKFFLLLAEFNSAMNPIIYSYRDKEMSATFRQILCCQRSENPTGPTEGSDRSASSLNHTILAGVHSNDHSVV

As a reminder, the Emax is the greatest response seen or fitted, relative to the assay's reference. In general, EC50 refers to the concentration needed to bring the measured effect to its halfway point. `CCCCCCCCCCCCCCCCO[C@@H]1CCCO[C@H]1COP(O)(O)=S` [MZN-018] came in with a maximum response (Emax) at LPA4 [1] of 6.4%. Also, at LPA2, the Emax stood at 16% and the concentration giving a half-maximal response (EC50) is 1000 nM. Moreover, on LPA2 (LPA2), the “<RIA>” value is <0.012>.

For `CCCCCCCC/C=C\CCCCCCCC(=O)N1CCC[C@H]1COP(O)(O)=S` [MZN-019], the 50% effective concentration (EC50) came to 8.32 nM on LPA4 [2] and 1600 nM at LPA2. The results for the Emax at LPA4 [1] and on LPA2 were 16% and 42%, respectively. Further, on LPA2 (LPA2), the “<RIA>” value is <0.022>.

At LPA4 [1], `CCCCCCCCCCCCCCCC(=O)N1CCC[C@H]1COP(O)(O)=S` [MZN-020] gave an Emax of 19%. In addition, on LPA2, the Emax is 44% and the EC50 came to 630 nM.

`CCCCCCCCCCCCCCCC(=O)O[C@@H]1CCCO[C@H]1COP(O)(O)=S` [MZN-021]: on LPA4 [1], the Emax was found to be 21%. Moreover, on LPA2 (LPA2), the “agonistic activity in words” value is recorded as “no activity”.

With `CCCCCCCC/C=C/CCCCCCCC(=O)O[C@@H]1CCCO[C@H]1COP(O)(O)=S` [MZN-022], the figures for the maximum response (Emax) on LPA5, at LPA4 [1] and at LPA1 were 51%, 23% and 16%, respectively.

As to `CCCCCCc1ccccc1CCCCCCC(=O)O[C@@H]1CCCO[C@H]1COP(O)(O)=S` [MZN-023], on LPA4 [1], the Emax amounted to 18%.

With `CCCCCCc1cccc(CCCCCCC(=O)O[C@@H]2CCCO[C@H]2COP(O)(O)=S)c1` [MZN-024], the Emax on LPA4 [1] came to 22%.

Turning to `CCCCCCc1ccc(CCCCCCC(=O)O[C@@H]2CCCO[C@H]2COP(O)(O)=S)cc1` [MZN-025], the Emax on LPA4 [1] came to 23%.
